# ± gives the standard deviation of the averaged measurements.
# What was measured:
# Assay in all cases: level (log10 ratio to DMSO vehicle control); higher = higher biomarker level / cell amount than vehicle control
# [1] = compound: OCCCCC(F)(F)C(F)(F)C(F)(F)C(F)(F)F [4:4 Fluorotelomer alcohol]; details: in DMSO
# Method: (§1)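 BioMAP Diversity Plus panel of 12 human primary cell co-culture systems (3C, 4H, LPS, SAg, BT, BF4T, BE3C, CASM3C, HDF3CGF, KF3CT, MyoF, Mphg). Compounds were added 1 h before stimulation and left for 24 h (MyoF 48 h; BT 72 h for soluble read-outs or 6 d for IgG). Biomarkers were read by ELISA, cytotoxicity by SRB, PBMC viability and proliferation by Alamar Blue. Each well value was divided by the mean of 8 DMSO control wells on the same plate and log10 transformed; duplicate blinded samples were tested at 4 concentrations.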
# [2] = compound: CN(Cc1cnc2nc(N)nc(N)c2n1)c1ccc(C(=O)N[C@@H](CCC(=O)O)C(=O)O)cc1 [Methotrexate]; details: in DMSO
# Method: as §1
# [3] = compound: OCC(F)(F)C(F)(F)C(F)(F)C(F)(F)C(F)(F)C(F)(F)C(F)(F)C(F)(F)CO [1H,1H,10H,10H-Perfluorodecane-1,10-diol]; details: in DMSO
# Method: as §1
# [4] = compound: O=C(O)C(F)(F)C(F)(F)C(=O)O [Tetrafluorosuccinic acid]; details: in DMSO
# Method: as §1
# [5] = compound: O=C(O)C(F)(F)C(F)(F)C(F)(F)C(F)(F)C(F)(F)C(F)(F)C(F)(F)F [Perfluorooctanoic acid]; details: in DMSO
# Method: as §1
# [6] = compound: OCCC(F)(F)C(F)(F)C(F)(F)C(F)(F)C(F)(F)C(F)(F)C(F)(F)C(F)(F)F [8:2 Fluorotelomer alcohol]; details: 6700 nM; in DMSO
# Method: as §1
# [7] = compound: FC(F)(F)COC(OCC(F)(F)F)OCC(F)(F)F [tris(Trifluoroethoxy)methane]; details: in DMSO
# Method: as §1
Test System,level (log10) ([1]; 6700 nM),level (log10) ([1]; 20000 nM),level (log10) ([1]; 60000 nM),level (log10) ([2]; 1500 nM),level (log10) ([2]; 4400 nM),level (log10) ([2]; 13000 nM),level (log10) ([2]; 40000 nM),level (log10) ([3]; 6700 nM),level (log10) ([3]; 20000 nM),level (log10) ([3]; 60000 nM),level (log10) ([4]; 6700 nM),level (log10) ([4]; 20000 nM),level (log10) ([4]; 60000 nM),level (log10) ([5]; 6700 nM),level (log10) ([5]; 20000 nM),level (log10) ([5]; 60000 nM),level (log10) [6],level (log10) ([7]; 6700 nM),level (log10) ([7]; 20000 nM),level (log10) ([7]; 60000 nM)
CASM3C:CD106/VCAM-1,-0.015 ± 0.03,-0.0205 ± 0.00071,0.006 ± 0.027,-0.022 ± 0.05,0.016 ± 0.0014,0.009 ± 0.0028,-0.002 ± 0.027,0 ± 0.02,-0.0065 ± 0.025,-0.151,0.0015 ± 0.0035,-0.008 ± 0.027,-0.0045 ± 0.0064,-0.033 ± 0.011,-0.0165 ± 0.00071,0.019 ± 0.017,-0.0825 ± 0.015,-0.0095 ± 0.005,-0.02 ± 0.0014,-0.025 ± 0.0057
HDF3CGF:MMP-1,-0.008 ± 0.0028,0.006 ± 0.0014,0.004 ± 0.0042,-0.0085 ± 0.005,-0.0135 ± 0.0021,0.0005 ± 0.0021,0.0065 ± 0.028,0.0025 ± 0.00071,0.005 ± 0.018,-0.299,0.0295 ± 0.015,0.0315 ± 0.021,0.0195 ± 0.022,-0.0155 ± 0.0064,-0.048 ± 0.0085,-0.035 ± 0.023,0.034 ± 0.0014,-0.005 ± 0.0099,-0.005 ± 0.0014,0 ± 0.0085
MyoF:alpha-SM Actin,0.025 ± 0.041,0.0195 ± 0.04,0.041 ± 0.055,-0.001 ± 0.0028,-0.0225 ± 0.0092,-0.008 ± 0.0071,-0.017 ± 0.033,-0.0025 ± 0.019,-0.041 ± 0.03,-0.395,0.0065 ± 0.025,-0.0165 ± 0.015,-0.0275 ± 0.037,0.014 ± 0.02,0.0155 ± 0.047,-0.0035 ± 0.032,-0.021 ± 0.024,0.0075 ± 0.019,0 ± 0.011,-0.012 ± 0.025
MyoF:Collagen I,0.004 ± 0.0014,-0.002 ± 0.016,0.0065 ± 0.026,-0.0115 ± 0.049,-0.01 ± 0.059,0.01 ± 0.035,0.004 ± 0.038,-0.0105 ± 0.015,-0.0275 ± 0.013,-0.109,0.0045 ± 0.0021,0.007 ± 0.0014,0.0005 ± 0.012,-0.0065 ± 0.0092,-0.0035 ± 0.036,-0.034 ± 0.017,-0.0025 ± 0.021,-0.006 ± 0.0085,-0.013 ± 0.017,-0.01 ± 0.0014
HDF3CGF:TIMP-2,-0.004 ± 0.0099,0.024 ± 0.028,-0.0225 ± 0.026,-0.0655 ± 0.032,0 ± 0.11,-0.005 ± 0.085,-0.0335 ± 0.15,-0.006 ± 0.014,-0.0105 ± 0.00071,-0.095,-0.052 ± 0.042,-0.069 ± 0.025,-0.1 ± 0.018,-0.013 ± 0.014,0.0045 ± 0.019,0.033 ± 0.0042,-0.0475 ± 0.079,-0.0165 ± 0.029,-0.002 ± 0.037,-0.0105 ± 0.005
KF3CT:CXCL9/MIG,0.007 ± 0.023,0.0105 ± 0.011,0.0125 ± 0.022,0.001 ± 0.0028,0.002 ± 0.016,-0.0005 ± 0.0021,0.001 ± 0.0014,-0.0055 ± 0.0092,-0.0085 ± 0.005,-0.195,-0.011 ± 0.014,-0.011 ± 0.0099,-0.017 ± 0.0014,0.006 ± 0.016,0.006 ± 0.016,0.01 ± 0.016,0.0045 ± 0.0078,0.0215 ± 0.032,0.006 ± 0.027,0.0175 ± 0.015
KF3CT:PAI-I,-0.012 ± 0.017,-0.0075 ± 0.013,-0.009 ± 0.013,0.006 ± 0.014,-0.036 ± 0.031,-0.0145 ± 0.025,-0.007 ± 0.1,-0.0015 ± 0.021,0.023 ± 0.018,-0.341,-0.0465 ± 0.037,-0.0005 ± 0.0021,0 ± 0.0014,0.0005 ± 0.021,-0.015 ± 0.02,-0.079 ± 0.0028,-0.0255 ± 0.018,-0.0035 ± 0.0035,-0.006 ± 0.0014,0.0025 ± 0.0092
3C:CD141/Thrombomodulin,-0.0225 ± 0.035,-0.0265 ± 0.067,-0.007 ± 0.076,-0.024 ± 0.0085,-0.016 ± 0.0057,-0.0235 ± 0.067,-0.0265 ± 0.019,-0.027 ± 0.037,-0.016 ± 0.0014,0.055,-0.0285 ± 0.039,-0.048 ± 0.024,-0.038 ± 0.0085,0.023 ± 0.065,-0.011 ± 0.081,-0.0115 ± 0.039,0.044 ± 0.0057,-0.012 ± 0.061,-0.038 ± 0.047,-0.0425 ± 0.049
MyoF:Decorin,0.0115 ± 0.0035,-0.0015 ± 0.028,0.033 ± 0.057,0.0355 ± 0.037,0.0025 ± 0.026,0.0105 ± 0.016,0.0275 ± 0.0078,0.004 ± 0.027,-0.0005 ± 0.042,0.007,-0.0055 ± 0.0021,-0.006 ± 0.0057,0.014 ± 0.027,0.007 ± 0.018,0.02 ± 0.025,0.033 ± 0.055,-0.0195 ± 0.019,0.017 ± 0.025,0.0235 ± 0.013,0.0245 ± 0.021
3C:CD54/ICAM-1,0 ± 0.037,-0.017 ± 0.041,-0.002 ± 0.047,0.0065 ± 0.0064,-0.0085 ± 0.005,0.0045 ± 0.013,-0.002 ± 0.0085,-0.01 ± 0.0014,-0.0035 ± 0.005,-0.006,-0.0015 ± 0.0092,-0.016 ± 0.011,0.001 ± 0.0028,-0.0145 ± 0.0035,-0.007 ± 0.0042,0.0185 ± 0.0078,-0.014 ± 0.0014,0.004 ± 0.0042,-0.0105 ± 0.0064,-0.0145 ± 0.00071
KF3CT:CXCL10/IP-10,0.0105 ± 0.04,0.02 ± 0.03,0.0275 ± 0.037,0.0025 ± 0.018,0.0015 ± 0.011,0.004 ± 0.011,-0.0005 ± 0.021,-0.006 ± 0.0042,-0.0195 ± 0.0078,-0.104,-0.006 ± 0.0028,-0.0055 ± 0.0064,-0.0075 ± 0.00071,-0.006 ± 0.0042,-0.01 ± 0.0042,-0.0275 ± 0.0064,-0.0355 ± 0.018,0.005 ± 0.0042,-0.0045 ± 0.0064,-0.0025 ± 0.005
HDF3CGF:CD54/ICAM-1,-0.0135 ± 0.0064,-0.003 ± 0.011,-0.0125 ± 0.013,-0.0015 ± 0.00071,0.0045 ± 0.005,0.0055 ± 0.013,-0.0065 ± 0.025,0.002 ± 0.027,0.005 ± 0.0028,-0.753,-0.0055 ± 0.03,-0.006 ± 0.0071,-0.0105 ± 0.016,0.005 ± 0.0057,0.0055 ± 0.011,-0.0035 ± 0.005,0.0315 ± 0.035,-0.0195 ± 0.00071,-0.013 ± 0.034,-0.008 ± 0.0057
KF3CT:SRB,-0.02 ± 0.0085,-0.011 ± 0.017,0.004 ± 0.018,0.0105 ± 0.012,-0.002 ± 0.0057,0.0025 ± 0.0035,0.009 ± 0.021,-0.0155 ± 0.015,-0.022 ± 0.011,-0.25,-0.012,-0.0005 ± 0.0078,0.001 ± 0.0042,-0.005 ± 0.0014,-0.003 ± 0.0014,0.007 ± 0.037,0.0075 ± 0.0064,-0.0125 ± 0.00071,-0.0015 ± 0.0035,-0.0035 ± 0.012
lMphg:CCL2/MCP-1,-0.0295 ± 0.037,-0.0145 ± 0.00071,0.009 ± 0.0071,0.0115 ± 0.03,0.008 ± 0.035,-0.0105 ± 0.033,-0.0055 ± 0.021,-0.0125 ± 0.016,-0.0145 ± 0.005,-0.653,-0.03 ± 0.016,-0.0195 ± 0.012,0.0005 ± 0.042,0.018 ± 0.0071,0.036 ± 0.0028,0.025 ± 0.025,0.0165 ± 0.019,-0.01 ± 0.023,0.0005 ± 0.011,0.018 ± 0.035
